In paper PMC4450062, “A Membrane-bound eIF2 Alpha Kinase Located in Endosomes Is Regulated by Heme and Controls Differentiation and ROS Levels in Trypanosoma cruzi” (PLoS Pathogens, 2015):

Target: T1, GST-TcK2 (kinase domain of TcK2, T. cruzi K2) (Trypanosoma cruzi, UniProt Q4E5B6)
T1 construct: gene Tc00.1047053506559.129; N-terminal GST fusion (pGEX5X-1), GST kept, 68 kDa; E. coli BL21; transmembrane and N-terminal domains absent
T1 sequence (Q4E5B6 638-984): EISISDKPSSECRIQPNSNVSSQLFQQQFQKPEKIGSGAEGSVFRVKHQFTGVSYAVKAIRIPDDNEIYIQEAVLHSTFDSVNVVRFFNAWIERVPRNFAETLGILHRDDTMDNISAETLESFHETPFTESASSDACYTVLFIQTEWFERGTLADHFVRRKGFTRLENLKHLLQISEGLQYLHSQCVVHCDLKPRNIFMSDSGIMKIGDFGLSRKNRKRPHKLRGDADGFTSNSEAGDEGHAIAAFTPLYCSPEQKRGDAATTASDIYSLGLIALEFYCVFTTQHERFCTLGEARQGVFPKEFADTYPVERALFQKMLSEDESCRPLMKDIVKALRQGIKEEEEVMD
Assay: Soret absorbance titration at […] nm
Type: binding
Conditions: 0.1 M Tris-HCl pH 7.4, 50 mM NaCl, 25 °C, 30 min incubation; 5 μg/ml protein; GST alone shows no Soret band; read-out: Kd^app

SMILES: C=CC1=C(C)C2=Cc3c(C=C)c(C)c4[n]3[Fe]([Cl])[n]3c(c(C)c(CCC(=O)O)c3=CC3=NC(=C4)C(C)=C3CCC(=O)O)=CC1=N2 [hemin]
- Kd: 2.8 ± 0.6 µM
